Assay results published in US11090308B2, “Methods of treating liver disorders or lipid disorders with a THR-beta agonist” (Madrigal Pharmaceuticals, Inc., priority 2016, dated 2021).

Molecular target: T1, BCRP (Homo sapiens, UniProt Q9UNQ0)
T1 sequence (Q9UNQ0 1-655): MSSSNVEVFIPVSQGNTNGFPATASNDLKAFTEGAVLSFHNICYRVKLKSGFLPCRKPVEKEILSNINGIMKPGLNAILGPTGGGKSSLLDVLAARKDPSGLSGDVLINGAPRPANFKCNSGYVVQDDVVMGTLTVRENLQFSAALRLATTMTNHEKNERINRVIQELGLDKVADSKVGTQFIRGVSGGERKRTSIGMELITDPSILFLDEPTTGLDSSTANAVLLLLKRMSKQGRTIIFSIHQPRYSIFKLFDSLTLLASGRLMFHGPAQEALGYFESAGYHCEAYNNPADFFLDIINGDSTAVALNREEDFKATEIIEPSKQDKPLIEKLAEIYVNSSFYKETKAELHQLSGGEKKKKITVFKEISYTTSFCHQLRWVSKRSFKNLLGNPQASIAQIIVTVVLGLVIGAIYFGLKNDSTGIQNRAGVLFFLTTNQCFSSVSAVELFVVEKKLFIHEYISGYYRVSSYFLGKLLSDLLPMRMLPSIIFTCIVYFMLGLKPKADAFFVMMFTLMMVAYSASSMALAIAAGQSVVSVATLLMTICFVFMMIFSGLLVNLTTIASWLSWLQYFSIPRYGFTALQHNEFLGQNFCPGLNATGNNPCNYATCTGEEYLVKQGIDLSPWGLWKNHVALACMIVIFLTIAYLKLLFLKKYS
Experiment: In vitro drug transporter assay, BCRP
Type: in vitro ADME
Description: The following studies have been conducted: (a) in vitro drug protein binding, transporter (organic anion transporting polypeptide [OATP], P-glycoprotein [P-gp], breast cancer-related protein [BCRP], and multiple drug resistance protein 1 [MDR1]), and cytochrome P-450 enzyme assays to investigate absorption, distribution, and excretion; (b) in vivo MGL-3196 rat and dog oral PK and bioavailability studies; (c) in vivo ^14C-MGL-3196 rat and dog oral pharmacokinetics, absorption, excretion, and tissue distribution by quantitative whole-body autoradiography (QWBA) studies; and (d) liver disposition of MGL-3196 using an in vitro sandwiched hepatocyte model system (B-CLEAR® technology) in dog (SCDH) and human (SCHH) hepatocytes.

CC(C)c1cc(Oc2c(Cl)cc(-n3nc(C#N)c(=O)[nH]c3=O)cc2Cl)n[nH]c1=O [MGL-3196, 2-(3,5-dichloro-4-((5-isopropyl-6-oxo-1,6-dihydropyridazin-3-yl)oxy)phenyl)-3,5-dioxo-2,3,4,5-tetrahydro-1,2,4-triazine-6-carbonitrile]
Substrate for: BCRP: BCRP | Inhibitor of: BCRP, % inhibition (@ 25 uM genistein): 3-sulfate; 24% @ 25 uM genistein) | IC50 (for Estrone-3-sulfate, read-out: Inhibitor of: BCRP, IC50): 27.4 µM
